This is an account of results in the SangsterLogP compilation.

A word on the logD: it is the decadic logarithm of the distribution of all forms, ionised or not, between an organic phase and buffer at a given pH. Low values mean a more hydrophilic compound, high ones a more lipophilic compound. In general, logP refers to a log measure of how a compound divides between an organic and an aqueous phase.

Series [1] in a line: method code SF-AS, from DOI: 10.1081/jlc-100104900. The note with it: pH 1.0.
Series [2] in a line: method code SF-TN, from DOI: 10.1002/jps.2600741210, PMID: 4087196. The note with it: pH 7.4.
A short description of series [3]: method code SF-AS, from DOI: 10.1584/jpestics.8.69.
Experiment in series [4]: not given
The source holds these as a separate data set.

Series [5] can be described thus: method code SF-RC, from PMID: 7826467.
A short description of series [6]: method code SF-GLC, from DOI: 10.1002/etc.5620080702.
The nature of series [7]: method code SF, from DOI: 10.1016/0223-5234(96)89550-x.
Experiment in series [8]: not given
The source holds these as a separate data set.

Experiment in series [9]: not given
The source holds these as a separate data set.

The nature of series [10]: method code SF-AS, from DOI: 10.1002/em.2850200210, PMID: 1505530.
The nature of series [11]: method code SF-RC, from DOI: 10.1021/jm8013376, PMID: 19216563. The note with it: pH 7.4.
Series [12] in a line: method code SF-HPLC, from DOI: 10.3109/03639045.2012.690417, PMID: 22670797.
Series [13] is described as follows: method code SF-AS, from DOI: 10.1002/jps.2600751012, PMID: 3795027.
Experiment in series [14]: not given
The source holds these as a separate data set.

Experiment in series [15]: not given
The source holds these as a separate data set.

Experiment in series [16]: not given
This is another data set of the same source.

Series [17] can be described thus: method code SF, from DOI: 10.1016/s0021-9673(00)89463-7. The conditions noted are these: pH 2.4.
Experiment in series [18]: not given
The source holds these as a separate data set.

Experiment in series [19]: not given
The source holds these as a separate data set.

Series [20] in a line: method code SF-AS, from PMID: 582409. The conditions noted are these: pH 7.4.
Experiment in series [21]: not given
The source holds these as a separate data set.

A short description of series [22]: method code SF-RC, from PMID: 892676.
Series [23] can be described thus: method code SF-AS, from DOI: 10.1211/0022357001773940, PMID: 10757413. The note with it: pH 7.4.
Experiment in series [24]: not given
This is another data set of the same source.

Experiment in series [25]: not given
This is another data set of the same source.

Experiment in series [26]: not given
The source holds these as a separate data set.

Experiment in series [27]: not given
The source holds these as a separate data set.

The nature of series [28]: from Maeno, S., Miura, I., Masuda, K., & Nagata, T. (1990). Mepanipyrim(KIF-3535), a new pyrimidine fungicide. In Brighton Crop Protection Conference, Pests and Diseases - 1990 (Vol. 2, pp. 415-422). ….
The nature of series [29]: method code SF-GLC, from DOI: 10.1016/s0380-1330(82)71969-0.
Series [30] in a line: method code SF-AS, from DOI: 10.1211/0022357011776199, PMID: 11428660. The conditions noted are these: pH 7.4.
Experiment in series [31]: not given
This is another data set of the same source.

Series [32] in a line: method code SF, from DOI: 10.1248/cpb.34.4787.
Series [33] is described as follows: method code SF-RC, from DOI: 10.1016/j.nucmedbio.2009.03.005, PMID: 19647167. The conditions noted are these: pH 7.4.
Series [34] in a line: method code SF-HPLC, from DOI: 10.1002/etc.5620170216.
Series [35] in a line: method code SF-RC, from DOI: 10.1002/syn.20147. The conditions noted are these: pH 7.4.
A short description of series [36]: method code SF-AS, from DOI: 10.1021/jm00001a010, PMID: 7837239. The note with it: pH 7.0.
Experiment in series [37]: not given
This is another data set of the same source.

The nature of series [38]: method code SF, from He, J.; Lang, L.; Zhang, Q.; Dong, L.; Chen, F.; Xu, G. (2010). Study on physicochemical properties of helicid. China Pharmacy, (1)23-25. The note with it: pH 2.0.
Series [39] in a line: method code SF, from DOI: 10.1016/0048-3575(89)90162-4.
Series [40] is described as follows: method code SF-RC, from DOI: 10.1016/j.apradiso.2005.06.012, PMID: 16131471. The note with it: pH 7.5.
Experiment in series [41]: not given
This is another data set of the same source.

Experiment in series [42]: not given
The source holds these as a separate data set.

Experiment in series [43]: not given
The source holds these as a separate data set.

The nature of series [44]: method code SF, from DOI: 10.1016/j.ejps.2007.04.003, PMID: 17540545. The note with it: pH 3.0.
Experiment in series [45]: not given
The source holds these as a separate data set.

Series [46] is described as follows: method code …, from Pirumyan, G.; Martiryan, A.; Skurlator, Yu.; Petrosyan, D.; Akhnazaryan, A.; Arutyunyan, V. (1988). Transformations of pyrazolone compounds for fish farming in aqueous medium. Chemical Journal of ….
Series [47] can be described thus: method code SF-HPLC, from DOI: 10.1021/jm970790w, PMID: 9548821. The note with it: pH 7.4.
A short description of series [48]: method code SF-RC, from DOI: 10.1007/bf00263256, PMID: 6394334.

In the case of `CC(C(=O)O)c1ccc(C(=O)c2ccccc2)s1` (centres undefined), the logD in series [1] came to 2.86.

Consider `CCCCOC(=O)[C@@H](N)Cc1ccc(O)cc1`, for which the logD in series [2] was determined as 1.8.

Take `ClC(Cl)C(c1ccccc1)c1ccccc1`: the logP in series [3] came to 4.51.

As for `CCOC(=O)CCCn1c(=O)oc2ccccc2c1=O`, the logP worked out at 0.63.

Regarding `CCNc1ccc(C(=O)OCCN(C)C)cc1`, the log partition coefficient (logP) in series [4] worked out at 2.62.

In [5], `COc1ccc2c(C)cc(=O)n3c(C)cc1c23` came in with a logP of 2.84.

For `Clc1ccc(C2OC2c2ccccc2)cc1` (centres undefined), the logP in series [6] worked out at 4.54.

`O=C(Nc1ccn(C2CSC(CO)O2)c(=O)n1)c1cccnc1` (centres undefined) had a logP in series [7] of 0.84.

`CCCCCCn1c(=O)c2c(ncn2C)n(C)c1=O`: the logP in [8] worked out at 1.2.

As for `CCCCCCc1ccccc1`, the logP in [9] was 5.24.

For the compound `O=C1c2ccccc2-c2cc([N+](=O)[O-])ccc21`, the logP in [10] amounted to 3.06.

As to `Oc1ccc2nc(-c3ccccc3)sc2c1`, the logD in series [11] is 2.48.

`CC(C)(C)c1ccc(/C=N/NC(N)=S)cc1`: the logP in series [12] turned out to be 3.9.

For the compound `O=C(OCc1ccccc1)c1cccnc1`, the logP in [13] is 2.4.

In turn, `Cc1cc2cccc(C)c2cc1C` had a log partition coefficient (logP) in [14] of 4.73.

In turn, `N#Cc1ccc(NS(=O)(=O)c2ccc(N)cc2)cc1` returned a log partition coefficient (logP) in series [15] of 1.43.

`O=[N+]([O-])c1ccc(Oc2ccc(C(F)(F)F)cc2[N+](=O)[O-])cc1`: in series [16], the logP amounted to 3.7.

The compound `O=C(O)c1ccc2oc3ccccc3c(=O)c2c1` registered a logD in [17] of 3.12.

Regarding `O=c1[nH]c2c(c(=O)n1C1CCCCC1)CCC2`, in series [18], the logP came out at 1.9.

With `CC(C)c1cccc(C(C)C)c1O`, in series [19], the logP was determined as 3.63.

Compound `COc1ccc(-c2nc3c(N)nc(N)nc3nc2N)cc1` registered a logD in [20] of 1.19.

With `O=C(OCc1ccccc1)c1ccc(O)cc1`, the logP in [21] came to 3.56.

In the case of `O=C(Nc1ccc(Cl)cc1)Nc1ccc(Cl)c(C(F)(F)F)c1`, the logP in series [22] turned out to be 2.93.

Compound `CCc1c(O)c(=O)ccn1CCCn1ccnc1` returned a logD in series [23] of -0.32.

In series [24], `FCCCN1CCC[C@H]1COc1cccnc1` had a logP of 2.2.

`CCC(C)c1ccccc1OC(=O)NC` (centres undefined) showed a logP in series [25] of 2.8.

On to `CCOP(=O)(OCC)Oc1cc(C)nc(NC(C)C)n1`, for which the logP in [26] came out at 2.07.

Turning to `O=C(Oc1ccccc1)c1ccccc1`, the lipophilicity (logP) in [27] was determined as 3.5.

As for `CC#Cc1cc(C)nc(Nc2ccccc2)n1`, the logP in series [28] came to 3.42.

With `Clc1ccc(C(c2ccc(Cl)cc2)C(Cl)(Cl)Cl)cc1`, in series [29], the logP was 5.1.

As to `Cc1ncc([N+](=O)[O-])n1CCOC(=O)CN1CCCCC1`, the logD in series [30] turned out to be 0.51.

Turning to `Nc1ccc(C=Cc2ccc(N)cc2S(=O)(=O)O)c(S(=O)(=O)O)c1`, the logP in series [31] was -1.7.

In series [32], `O=C(O)c1ccc(-c2ccccc2)cc1` displayed a logP of 3.75.

Consider `CO/N=C1/C=C(C#Cc2cccc(F)n2)CCC1`, for which the logD in [33] came out at 2.11.

In turn, `c1ccc2cc3ccccc3cc2c1` showed a logP in series [34] of 4.68.

Compound `Cc1cc(C#N)cc(C#Cc2csc(C)n2)c1` had a logD in series [35] of 3.4.

In [36], `C=CCn1cnc2c(=O)[nH]c(Nc3ccccc3)nc21` displayed a logD of 1.75.

The compound `Cc1cc(Cc2cc(Cl)ccc2Cl)c(Cl)cc1Cl` registered a logP in series [37] of 6.38.

Consider `O=Cc1ccc(O[C@@H]2O[C@H](CO)[C@@H](O)[C@@H](O)[C@H]2O)cc1`, for which the logD in series [38] is -1.08.

Compound `OC1(c2cc(Cl)ccc2Cl)CCCCC1n1cncn1` (centres undefined) displayed a lipophilicity (logP) in series [39] of 3.24.

With `COc1ccc2[nH]c(I)c(CCNC(C)=O)c2c1`, the logD in [40] was 2.52.

For the compound `O=C(O)c1cc(-c2ccc(F)cc2F)ccc1O`, the logP in series [41] came to 3.95.

Take `Cn1ccc2cc(-c3nc4ccc(F)nc4o3)cnc21`: the logP in [42] turned out to be 2.91.

The compound `Fc1cccc(-n2nnnc2Oc2ccccc2)c1` showed a logP in series [43] of 3.6.

For `CCn1cc(C(=O)O)c(=O)c2cc3c(cc21)OCO3`, in series [44], the logD is 1.01.

In [45], `Clc1ccc(C(c2ccc(Cl)cc2)C(Cl)Cl)cc1` gave a logP of 5.19.

In turn, `CC1(C)CC(=O)NN1C=NNc1ccccc1` gave a logP in [46] of 0.26.

The compound `CC1(C)O[C@@H]2[C@@H](CO[C@@]3(COS(N)(=O)=O)OC(C)(C)O[C@@H]23)O1` yielded a logD in series [47] of 0.53.

In the case of `CC(=NO)C(C)(C)NCCCNC(C)(C)C(C)=NO`, the logP in series [48] is 1.76.
